# Measurements: the supplement of paper PMC11061612
# Columns and labels:
# Experiment in all cases: Bliss excess, mean over the matrix (fraction); higher = more synergy
# RD (Rhabdomyosarcoma) = tested on: RD (Rhabdomyosarcoma)
# Summary of the method: (§1)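 After 24 hours at 37°C and 5% CO2 in 1536-well plates, cells in DMEM/F12 or RPMI plus 10% FBS received two-drug dose matrices for 72 hours. Viability came from CellTiter-Glo 2.0 luminescence and was scaled as inhibition, anchored at 0 by vehicle wells and at 1 by blank wells. Combination Emax is taken as the second-highest inhibition in the matrix, and Bliss excess as the observed combination effect less EA + EB − EA·EB, with EA and EB the single-agent effects.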
# [1] = tested on: NCI-H520 (Squamous Cell Lung Carcinoma)
# Summary of the method: as §1
# [2] = tested on: SK-GT-4 (Esophageal Adenocarcinoma)
# Summary of the method: as §1
# [3] = tested on: HCC1419 (Breast Carcinoma)
# Summary of the method: as §1
# [4] = tested on: 8505C (Thyroid Gland Carcinoma)
# Summary of the method: as §1
# M059J (Glioblastoma) = tested on: M059J (Glioblastoma)
# Summary of the method: as §1
# [5] = tested on: KYSE-270 (Esophageal Squamous Cell Carcinoma)
# Summary of the method: as §1
# [6] = tested on: VMRC-RCZ (Kidney Carcinoma)
# Summary of the method: as §1
# [7] = tested on: SNU-398 (Hepatocellular Carcinoma)
# Summary of the method: as §1
# [8] = tested on: DAN-G (Pancreatic Carcinoma)
# Summary of the method: as §1
# [9] = tested on: MOG-G-CCM (Low Grade Glioma)
# Summary of the method: as §1
# [10] = tested on: NCI-H661 (Non-Small Cell Lung Carcinoma)
# Summary of the method: as §1
# [11] = tested on: RPMI-8226 (Plasma Cell Myeloma)
# Summary of the method: as §1
# [12] = tested on: NCI-H929 (Plasma Cell Myeloma)
# Summary of the method: as §1
# [13] = tested on: ST486 (Burkitt's Lymphoma)
# Summary of the method: as §1
# [14] = tested on: KMS-12-BM (Plasma Cell Myeloma)
# Summary of the method: as §1
# [15] = tested on: COR-L279 (Small Cell Lung Carcinoma)
# Summary of the method: as §1
# SJSA-1 (Osteosarcoma) = tested on: SJSA-1 (Osteosarcoma)
# Summary of the method: as §1
# [16] = tested on: CW-2 (Colorectal Carcinoma)
# Summary of the method: as §1
# [17] = tested on: SK-GT-2 (Gastric Carcinoma)
# Summary of the method: as §1
Structure (SMILES),Bliss excess (RD (Rhabdomyosarcoma)),Bliss excess [1],Bliss excess [2],Bliss excess [3],Bliss excess [4],Bliss excess (M059J (Glioblastoma)),Bliss excess [5],Bliss excess [6],Bliss excess [7],Bliss excess [8],Bliss excess [9],Bliss excess [10],Bliss excess [11],Bliss excess [12],Bliss excess [13],Bliss excess [14],Bliss excess [15],Bliss excess (SJSA-1 (Osteosarcoma)),Bliss excess [16],Bliss excess [17]
"C[C@@H]1COCCN1c1cc(C2([S@](C)(=N)=O)CC2)nc(-c2ccnc3[nH]ccc23)n1 [AZD6738] + O=C(c1cc(Cc2n[nH]c(=O)c3ccccc23)ccc1F)N1CCN(C(=O)C2CC2)CC1 [Olaparib] (first compound max 10 µM, 7x7, partner max 10 µM)",0.0312,0.044,-0.046,-0.0175,0.0004,0.0113,-0.013,0.0181,0.0108,-0.0051,0.0005,0.039,-0.0189,-0.0942,-0.0026,-0.0189,0.0042,-0.0371,0.0008,0.0148
"Cc1cc2ncnn2cc1Nc1ncc2c(n1)n(C1CCOCC1)c(=O)n2C [AZD7648] + C=CCn1c(=O)c2cnc(Nc3ccc(N4CCN(C)CC4)cc3)nc2n1-c1cccc(C(C)(C)O)n1 [AZD1775] (first compound max 10 µM, partner max 1 µM)",-0.0168,0.004,-0.0515,-0.0156,-0.0235,-0.0821,0.0028,0.0117,0.0128,-0.0686,-0.0309,-0.0135,0.0062,-0.0572,-0.0316,0.0085,-0.0595,-0.024,0.0419,-0.047
"Cc1cc2ncnn2cc1Nc1ncc2c(n1)n(C1CCOCC1)c(=O)n2C [AZD7648] + CCN(CCO)CCCOc1ccc2c(Nc3cc(CC(=O)Nc4cccc(F)c4)[nH]n3)ncnc2c1 [AZD2811] (first compound max 10 µM, 7x7, partner max 1 µM)",-0.0243,0.0195,-0.0041,-0.0264,0.0059,-0.0551,0.0332,0.0038,0.013,0.0271,0.0246,0.0564,0.0363,-0.0223,-0.0697,0.0266,-0.0803,0.0601,-0.0089,0.0137
"Cc1cc2ncnn2cc1Nc1ncc2c(n1)n(C1CCOCC1)c(=O)n2C [AZD7648] + CN(C)CCCOc1ccc(-c2ccc3ncc4c(c3c2)n(C2CCOCC2)c(=O)n4C)cn1 [AZD0156] (first compound max 10 µM, 7x7, partner max 1 µM)",-0.0142,0.0833,-0.0406,-0.0515,-0.0003,0.0149,-0.0004,-0.0314,-0.0273,-0.0168,-0.0609,0.0202,0.0171,-0.0727,-0.0071,0.0032,-0.0044,-0.0385,-0.0088,-0.0011
"Cc1cc2ncnn2cc1Nc1ncc2c(n1)n(C1CCOCC1)c(=O)n2C [AZD7648] + C[C@@H]1COCCN1C2=NC(=NC(=C2)C3(CC3)[S@](=N)(=O)C)C4=C5C=CNC5=NC=C4 [AZD6738] (first compound max 10 µM, 7x7, partner max 10 µM)",0.0425,-0.0108,0.0068,-0.0221,-0.0223,0.0282,0.0008,0.0115,-0.0097,-0.0093,-0.062,0.0522,-0.0744,-0.0268,0.0077,0.0125,0.0253,0.0225,0.0297,-0.0034
"Cc1cc2ncnn2cc1Nc1ncc2c(n1)n(C1CCOCC1)c(=O)n2C [AZD7648] + O=C(c1cc(Cc2n[nH]c(=O)c3ccccc23)ccc1F)N1CCN(C(=O)C2CC2)CC1 [Olaparib] (first compound max 10 µM, 7x7, partner max 10 µM)",-0.0508,-0.0742,-0.0258,-0.066,-0.0202,-0.097,-0.034,-0.0546,-0.0381,-0.0568,-0.0269,-0.0373,-0.038,-0.0192,0.0048,0.027,-0.0256,-0.036,-0.0201,-0.0297
"COc1cccc2c1C(=O)c1c(O)c3c(c(O)c1C2=O)C[C@@](O)(C(=O)CO)C[C@@H]3O[C@H]1C[C@H](N)[C@H](O)[C@H](C)O1 [Doxorubicin] + Cc1cc2ncnn2cc1Nc1ncc2c(n1)n(C1CCOCC1)c(=O)n2C [AZD7648] (first compound max 1 µM, 7x7, partner max 10 µM)",0.0368,0.0158,-0.0081,-0.128,0.0859,-0.0255,0.0494,-0.024,0.056,0.0173,0.0213,0.0465,0.124,0.126,0.0895,0.0946,0.0715,0.0555,-0.0002,-0.0051
"COc1cccc(OCCCN)c1-c1cc(Nc2cnc(C#N)cn2)n[nH]1 [Prexasertib] + C=CCn1c(=O)c2cnc(Nc3ccc(N4CCN(C)CC4)cc3)nc2n1-c1cccc(C(C)(C)O)n1 [AZD1775] (first compound max 1 µM, partner max 1 µM)",0.0732,0.0421,0.0313,-0.0136,0.0849,0.178,0.217,-0.02,0.0254,-0.0093,0.0748,-0.0287,0.0893,0.15,0.0276,0.0595,0.0823,-0.0243,0.0224,0.0286
